Numbers after ± are expanded uncertainties.
Conditions: Adiabatic calorimetry

- Glass transition temperature: -80.30 ± 0.05 °C
Compound: CCOS(=O)(=O)[O-].CCn1cc[n+](C)c1 [1-ethyl-3-methylimidazolium ethyl sulfate]
